Key:
Experiment in all cases: KINOMEscan competition binding
Conditions in all cases: compound 10.0 µM
FES (human) = FES (human) (UniProt P07332)
PKMYT1 (human) = PKMYT1 (human) (UniProt Q99640)
RPS6KA5 KD1 (human) = RPS6KA5 KD1 (human) (UniProt O75582)
PAK7 (human) = PAK7 (human) (UniProt Q9P286)
TEK (human) = TEK (human) (UniProt Q02763)
PRKG2 (human) = PRKG2 (human) (UniProt Q13237)
LTK (human) = LTK (human) (UniProt P29376)
AKT1 (human) = AKT1 (human) (UniProt P31749)
PRKCH (human) = PRKCH (human) (UniProt P24723)
MAP3K7 (human) = MAP3K7 (human) (UniProt O43318)
EPHA8 (human) = EPHA8 (human) (UniProt P29322)
Sequence of EPHA8 (human) (P29322 whole entry, looked up): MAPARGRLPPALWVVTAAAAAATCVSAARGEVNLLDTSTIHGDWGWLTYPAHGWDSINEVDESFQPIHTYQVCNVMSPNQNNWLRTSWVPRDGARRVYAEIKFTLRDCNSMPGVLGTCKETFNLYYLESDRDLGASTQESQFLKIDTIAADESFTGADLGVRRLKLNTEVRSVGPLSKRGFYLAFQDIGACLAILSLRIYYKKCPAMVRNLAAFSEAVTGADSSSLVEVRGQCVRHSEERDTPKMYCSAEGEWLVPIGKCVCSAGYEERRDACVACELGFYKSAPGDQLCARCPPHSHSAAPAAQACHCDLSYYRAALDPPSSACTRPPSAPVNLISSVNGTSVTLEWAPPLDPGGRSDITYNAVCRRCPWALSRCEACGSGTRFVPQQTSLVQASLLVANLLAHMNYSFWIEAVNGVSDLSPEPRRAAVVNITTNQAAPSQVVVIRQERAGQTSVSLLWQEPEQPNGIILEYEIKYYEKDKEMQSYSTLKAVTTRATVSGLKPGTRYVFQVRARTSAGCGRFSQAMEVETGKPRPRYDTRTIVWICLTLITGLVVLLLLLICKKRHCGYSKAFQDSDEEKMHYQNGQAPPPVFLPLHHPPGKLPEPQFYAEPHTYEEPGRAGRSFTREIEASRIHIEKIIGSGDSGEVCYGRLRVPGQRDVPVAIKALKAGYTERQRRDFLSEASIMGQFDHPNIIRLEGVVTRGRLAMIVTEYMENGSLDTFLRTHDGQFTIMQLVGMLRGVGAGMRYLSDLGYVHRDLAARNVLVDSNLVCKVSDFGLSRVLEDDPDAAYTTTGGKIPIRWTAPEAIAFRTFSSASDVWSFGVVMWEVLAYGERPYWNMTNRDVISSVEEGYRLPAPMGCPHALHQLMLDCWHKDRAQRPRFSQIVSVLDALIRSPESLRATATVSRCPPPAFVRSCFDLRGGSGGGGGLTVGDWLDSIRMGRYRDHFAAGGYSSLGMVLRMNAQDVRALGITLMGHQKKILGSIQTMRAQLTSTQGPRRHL

[1] = test system: FLT3 (human), P36888 [ITD]
EPHB4 (human) = EPHB4 (human) (UniProt P54760)
LIMK1 (human) = LIMK1 (human) (UniProt P53667)
PAK3 (human) = PAK3 (human) (UniProt O75914)
MAPK8 (human) = MAPK8 (human) (UniProt P45983)
CSNK2A1 (human) = CSNK2A1 (human) (UniProt P68400)
MAPK12 (human) = MAPK12 (human) (UniProt P53778)
EPHB1 (human) = EPHB1 (human) (UniProt P54762)
LCK (human) = LCK (human) (UniProt P06239)
PTK2 (human) = PTK2 (human) (UniProt Q05397)
CSNK2A2 (human) = CSNK2A2 (human) (UniProt P19784)
CDK17 (human) = CDK17 (human) (UniProt Q00537)
STK36 (human) = STK36 (human) (UniProt Q9NRP7)
LYN (human) = LYN (human) (UniProt P07948)
CAMK1D (human) = CAMK1D (human) (UniProt Q8IU85)
FLT1 (human) = FLT1 (human) (UniProt P17948)
NEK2 (human) = NEK2 (human) (UniProt P51955)
GAK (human) = GAK (human) (UniProt O14976)
Sequence of GAK (human) (O14976 whole entry, looked up): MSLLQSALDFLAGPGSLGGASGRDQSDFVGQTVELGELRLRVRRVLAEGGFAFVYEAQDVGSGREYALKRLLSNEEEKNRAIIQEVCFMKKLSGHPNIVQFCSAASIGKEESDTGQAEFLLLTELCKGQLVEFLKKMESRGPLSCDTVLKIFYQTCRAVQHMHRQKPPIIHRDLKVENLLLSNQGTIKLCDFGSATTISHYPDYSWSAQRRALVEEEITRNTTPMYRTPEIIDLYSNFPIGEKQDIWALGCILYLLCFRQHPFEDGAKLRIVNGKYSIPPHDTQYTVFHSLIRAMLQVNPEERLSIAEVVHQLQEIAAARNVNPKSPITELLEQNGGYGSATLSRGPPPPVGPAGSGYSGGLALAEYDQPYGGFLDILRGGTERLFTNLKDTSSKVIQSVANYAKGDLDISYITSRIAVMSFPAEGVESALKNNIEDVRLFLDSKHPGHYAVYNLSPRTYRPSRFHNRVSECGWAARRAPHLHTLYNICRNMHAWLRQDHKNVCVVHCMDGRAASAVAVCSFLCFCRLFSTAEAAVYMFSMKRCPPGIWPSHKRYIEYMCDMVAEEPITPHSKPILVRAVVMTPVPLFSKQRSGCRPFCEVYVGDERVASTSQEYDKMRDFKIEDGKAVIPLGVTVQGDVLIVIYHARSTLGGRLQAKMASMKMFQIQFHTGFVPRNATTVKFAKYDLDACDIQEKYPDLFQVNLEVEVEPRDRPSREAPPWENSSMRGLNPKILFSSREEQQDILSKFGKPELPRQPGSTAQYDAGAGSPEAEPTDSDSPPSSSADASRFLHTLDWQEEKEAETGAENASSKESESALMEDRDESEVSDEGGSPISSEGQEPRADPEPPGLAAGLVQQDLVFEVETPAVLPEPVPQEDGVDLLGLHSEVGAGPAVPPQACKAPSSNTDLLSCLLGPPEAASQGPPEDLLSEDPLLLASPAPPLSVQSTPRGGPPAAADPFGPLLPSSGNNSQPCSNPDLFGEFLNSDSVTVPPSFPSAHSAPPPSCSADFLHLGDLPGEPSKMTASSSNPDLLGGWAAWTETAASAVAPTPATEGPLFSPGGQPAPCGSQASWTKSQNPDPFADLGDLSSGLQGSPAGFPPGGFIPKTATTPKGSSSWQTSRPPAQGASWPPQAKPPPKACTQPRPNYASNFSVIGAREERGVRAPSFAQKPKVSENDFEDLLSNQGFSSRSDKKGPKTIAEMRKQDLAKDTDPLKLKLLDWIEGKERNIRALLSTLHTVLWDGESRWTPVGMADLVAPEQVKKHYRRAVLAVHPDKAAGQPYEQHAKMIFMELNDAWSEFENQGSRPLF

PRKCE (human) = PRKCE (human) (UniProt Q02156)
PIM3 (human) = PIM3 (human) (UniProt Q86V86)
NLK (human) = NLK (human) (UniProt Q9UBE8)
Sequence of NLK (human) (Q9UBE8 whole entry, looked up): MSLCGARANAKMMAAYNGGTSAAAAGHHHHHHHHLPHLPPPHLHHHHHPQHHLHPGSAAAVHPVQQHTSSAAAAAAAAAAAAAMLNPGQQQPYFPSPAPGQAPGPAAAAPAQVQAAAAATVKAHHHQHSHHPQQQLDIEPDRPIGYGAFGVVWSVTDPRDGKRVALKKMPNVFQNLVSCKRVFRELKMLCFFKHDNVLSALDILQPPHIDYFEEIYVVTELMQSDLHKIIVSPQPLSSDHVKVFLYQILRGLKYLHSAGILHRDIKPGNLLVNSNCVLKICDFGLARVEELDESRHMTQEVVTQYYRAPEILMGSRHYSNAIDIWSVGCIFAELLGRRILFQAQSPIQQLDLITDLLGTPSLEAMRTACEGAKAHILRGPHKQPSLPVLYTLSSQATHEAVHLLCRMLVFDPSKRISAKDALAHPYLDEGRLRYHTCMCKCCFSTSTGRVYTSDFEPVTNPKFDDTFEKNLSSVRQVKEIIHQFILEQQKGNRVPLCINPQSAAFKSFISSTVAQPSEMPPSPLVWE

TAOK1 (human) = TAOK1 (human) (UniProt Q7L7X3)
CSF1R (human) = CSF1R (human) (UniProt P07333)
GSK3B (human) = GSK3B (human) (UniProt P49841)
PIM2 (human) = PIM2 (human) (UniProt Q9P1W9)
MKNK2 (human) = MKNK2 (human) (UniProt Q9HBH9)
ULK1 (human) = ULK1 (human) (UniProt O75385)
NUAK1 (human) = NUAK1 (human) (UniProt O60285)
PIM1 (human) = PIM1 (human) (UniProt P11309)
Sequence of PIM1 (human) (P11309 whole entry, looked up): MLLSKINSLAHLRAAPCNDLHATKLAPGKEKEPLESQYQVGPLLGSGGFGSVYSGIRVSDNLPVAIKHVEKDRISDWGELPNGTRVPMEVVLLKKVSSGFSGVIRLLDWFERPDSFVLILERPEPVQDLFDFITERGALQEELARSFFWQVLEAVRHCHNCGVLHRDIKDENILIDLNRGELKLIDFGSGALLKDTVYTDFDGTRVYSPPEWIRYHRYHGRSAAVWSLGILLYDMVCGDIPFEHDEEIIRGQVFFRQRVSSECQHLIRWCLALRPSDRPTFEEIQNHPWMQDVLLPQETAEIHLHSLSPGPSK

MAPK7 (human) = MAPK7 (human) (UniProt Q13164)

Sequence of RPS6KA5 KD1 (human) (O75582 whole entry, looked up): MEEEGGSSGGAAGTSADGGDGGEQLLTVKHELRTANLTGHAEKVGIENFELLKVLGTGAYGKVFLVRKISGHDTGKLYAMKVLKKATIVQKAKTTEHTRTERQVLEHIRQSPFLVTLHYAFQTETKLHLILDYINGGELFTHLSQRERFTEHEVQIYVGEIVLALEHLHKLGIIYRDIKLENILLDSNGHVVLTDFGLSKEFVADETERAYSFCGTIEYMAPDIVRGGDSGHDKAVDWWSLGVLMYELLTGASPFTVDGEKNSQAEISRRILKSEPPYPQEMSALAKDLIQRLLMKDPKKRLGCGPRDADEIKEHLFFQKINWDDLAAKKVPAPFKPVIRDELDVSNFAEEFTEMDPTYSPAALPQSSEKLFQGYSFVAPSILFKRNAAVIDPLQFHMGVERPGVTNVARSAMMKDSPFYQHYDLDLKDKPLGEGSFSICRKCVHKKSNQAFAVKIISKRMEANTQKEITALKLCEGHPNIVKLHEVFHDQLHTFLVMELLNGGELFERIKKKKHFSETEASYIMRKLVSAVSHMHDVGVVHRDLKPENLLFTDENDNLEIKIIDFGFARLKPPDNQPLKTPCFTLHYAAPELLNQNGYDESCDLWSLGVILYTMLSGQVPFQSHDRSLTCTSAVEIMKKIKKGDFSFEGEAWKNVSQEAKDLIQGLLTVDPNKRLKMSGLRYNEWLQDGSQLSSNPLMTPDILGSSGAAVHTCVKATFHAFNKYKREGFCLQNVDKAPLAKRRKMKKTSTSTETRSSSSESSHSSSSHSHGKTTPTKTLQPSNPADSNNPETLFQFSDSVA
Sequence of TEK (human) (Q02763 whole entry, looked up): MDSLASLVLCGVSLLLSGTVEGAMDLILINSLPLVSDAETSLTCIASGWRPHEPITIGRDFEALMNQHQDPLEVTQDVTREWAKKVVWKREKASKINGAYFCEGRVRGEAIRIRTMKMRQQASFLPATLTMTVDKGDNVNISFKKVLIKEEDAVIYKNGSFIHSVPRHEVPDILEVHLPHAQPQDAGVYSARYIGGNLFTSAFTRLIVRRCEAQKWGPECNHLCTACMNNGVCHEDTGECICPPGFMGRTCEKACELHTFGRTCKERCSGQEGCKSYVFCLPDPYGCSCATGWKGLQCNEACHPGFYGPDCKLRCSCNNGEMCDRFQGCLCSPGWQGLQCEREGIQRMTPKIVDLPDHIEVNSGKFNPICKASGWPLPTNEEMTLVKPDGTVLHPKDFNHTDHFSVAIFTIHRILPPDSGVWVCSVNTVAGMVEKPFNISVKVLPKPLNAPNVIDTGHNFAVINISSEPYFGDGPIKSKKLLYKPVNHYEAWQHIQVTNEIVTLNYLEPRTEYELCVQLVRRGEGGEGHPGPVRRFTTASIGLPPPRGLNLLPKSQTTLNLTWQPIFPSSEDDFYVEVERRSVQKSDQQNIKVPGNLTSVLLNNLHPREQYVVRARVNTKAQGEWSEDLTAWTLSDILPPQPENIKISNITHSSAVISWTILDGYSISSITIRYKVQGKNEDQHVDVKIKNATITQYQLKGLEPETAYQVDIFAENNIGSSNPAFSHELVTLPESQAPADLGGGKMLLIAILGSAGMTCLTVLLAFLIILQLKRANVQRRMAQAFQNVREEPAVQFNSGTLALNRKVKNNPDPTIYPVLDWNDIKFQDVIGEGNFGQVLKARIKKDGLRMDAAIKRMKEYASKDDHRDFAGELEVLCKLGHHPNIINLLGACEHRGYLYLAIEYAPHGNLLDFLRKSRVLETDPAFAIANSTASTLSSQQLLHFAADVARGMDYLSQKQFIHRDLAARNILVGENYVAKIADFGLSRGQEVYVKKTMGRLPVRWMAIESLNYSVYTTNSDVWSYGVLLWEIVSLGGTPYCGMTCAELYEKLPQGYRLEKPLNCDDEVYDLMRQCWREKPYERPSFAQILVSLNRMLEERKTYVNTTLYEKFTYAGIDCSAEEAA

C=CC(=O)Nc1cccc(Nc2nc(N[C@H]3CC[C@H](N(C)C)CC3)nc3c2ncn3C(C)C)c1
kinase still bound, per cent of control (FES (human)): 85% | kinase still bound, per cent of control (PKMYT1 (human)): 93% | kinase still bound, per cent of control (RPS6KA5 KD1 (human)): 93% | kinase still bound, per cent of control (PAK7 (human)): 17% | kinase still bound, per cent of control (TEK (human)): 95% | kinase still bound, per cent of control (PRKG2 (human)): 96% | kinase still bound, per cent of control (LTK (human)): 88% | kinase still bound, per cent of control (AKT1 (human)): 93% | kinase still bound, per cent of control (PRKCH (human)): 91% | kinase still bound, per cent of control (MAP3K7 (human)): 21% | kinase still bound, per cent of control (EPHA8 (human)): 100% | kinase still bound, per cent of control [1]: 1% | kinase still bound, per cent of control (EPHB4 (human)): 60% | kinase still bound, per cent of control (LIMK1 (human)): 100% | kinase still bound, per cent of control (PAK3 (human)): 100% | kinase still bound, per cent of control (MAPK8 (human)): 100% | kinase still bound, per cent of control (CSNK2A1 (human)): 54% | kinase still bound, per cent of control (MAPK12 (human)): 96% | kinase still bound, per cent of control (EPHB1 (human)): 84% | kinase still bound, per cent of control (LCK (human)): 38% | kinase still bound, per cent of control (PTK2 (human)): 26% | kinase still bound, per cent of control (CSNK2A2 (human)): 48% | kinase still bound, per cent of control (CDK17 (human)): 100% | kinase still bound, per cent of control (STK36 (human)): 100% | kinase still bound, per cent of control (LYN (human)): 50% | kinase still bound, per cent of control (CAMK1D (human)): 67% | kinase still bound, per cent of control (FLT1 (human)): 100% | kinase still bound, per cent of control (NEK2 (human)): 94% | kinase still bound, per cent of control (GAK (human)): 44% | kinase still bound, per cent of control (PRKCE (human)): 52% | kinase still bound, per cent of control (PIM3 (human)): 75% | kinase still bound, per cent of control (NLK (human)): 96% | kinase still bound, per cent of control (TAOK1 (human)): 35% | kinase still bound, per cent of control (CSF1R (human)): 52% | kinase still bound, per cent of control (GSK3B (human)): 94% | kinase still bound, per cent of control (PIM2 (human)): 100% | kinase still bound, per cent of control (MKNK2 (human)): 39% | kinase still bound, per cent of control (ULK1 (human)): 0.7% | kinase still bound, per cent of control (NUAK1 (human)): 93% | kinase still bound, per cent of control (PIM1 (human)): 92% | kinase still bound, per cent of control (MAPK7 (human)): 100%

C[C@@H](Oc1cc(-n2cnc3ccc(CN4CCN(C)CC4)cc32)sc1C(N)=O)c1ccccc1C(F)(F)F
kinase still bound, per cent of control (FES (human)): 88% | kinase still bound, per cent of control (PKMYT1 (human)): 100% | kinase still bound, per cent of control (RPS6KA5 KD1 (human)): 100% | kinase still bound, per cent of control (PAK7 (human)): 60% | kinase still bound, per cent of control (TEK (human)): 78% | kinase still bound, per cent of control (PRKG2 (human)): 95% | kinase still bound, per cent of control (LTK (human)): 100% | kinase still bound, per cent of control (AKT1 (human)): 100% | kinase still bound, per cent of control (PRKCH (human)): 90% | kinase still bound, per cent of control (MAP3K7 (human)): 48% | kinase still bound, per cent of control (EPHA8 (human)): 90% | kinase still bound, per cent of control [1]: 31% | kinase still bound, per cent of control (EPHB4 (human)): 100% | kinase still bound, per cent of control (LIMK1 (human)): 100% | kinase still bound, per cent of control (PAK3 (human)): 96% | kinase still bound, per cent of control (MAPK8 (human)): 100% | kinase still bound, per cent of control (CSNK2A1 (human)): 13% | kinase still bound, per cent of control (MAPK12 (human)): 95% | kinase still bound, per cent of control (EPHB1 (human)): 99% | kinase still bound, per cent of control (LCK (human)): 70% | kinase still bound, per cent of control (PTK2 (human)): 99% | kinase still bound, per cent of control (CSNK2A2 (human)): 4.6% | kinase still bound, per cent of control (CDK17 (human)): 90% | kinase still bound, per cent of control (STK36 (human)): 98% | kinase still bound, per cent of control (LYN (human)): 99% | kinase still bound, per cent of control (CAMK1D (human)): 82% | kinase still bound, per cent of control (FLT1 (human)): 100% | kinase still bound, per cent of control (NEK2 (human)): 2.4% | kinase still bound, per cent of control (GAK (human)): 100% | kinase still bound, per cent of control (PRKCE (human)): 3.9% | kinase still bound, per cent of control (PIM3 (human)): 11% | kinase still bound, per cent of control (NLK (human)): 100% | kinase still bound, per cent of control (TAOK1 (human)): 14% | kinase still bound, per cent of control (CSF1R (human)): 77% | kinase still bound, per cent of control (GSK3B (human)): 100% | kinase still bound, per cent of control (PIM2 (human)): 77% | kinase still bound, per cent of control (MKNK2 (human)): 23% | kinase still bound, per cent of control (ULK1 (human)): 41% | kinase still bound, per cent of control (NUAK1 (human)): 17% | kinase still bound, per cent of control (PIM1 (human)): 3% | kinase still bound, per cent of control (MAPK7 (human)): 91%

— the kinase profiling compilation of Christmann-Franck et al. (2016)
